Measured values reported in PubChem BioAssay (NCI).
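Exposure lasted 48 hours, with cells grown in 96-well plates and compounds tested at five concentrations. Abbreviation: GI50, concentration required for 50% inhibition of growth. TGI denotes the concentration required for complete inhibition of growth.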

Columns and labels:
Experiment in all cases: inhibition of tumour cell growth, NCI panel, 48 h
HCT-116 colon = test system: HCT-116 colon
MCF7 breast = test system: MCF7 breast
HOP-92 NSCLC = test system: HOP-92 NSCLC
A498 renal = test system: A498 renal
ACHN renal = test system: ACHN renal
A549 NSCLC = test system: A549 NSCLC
OVCAR-5 ovarian = test system: OVCAR-5 ovarian
SK-OV-3 ovarian = test system: SK-OV-3 ovarian
SNB-19 CNS = test system: SNB-19 CNS
MOLT-4 leukemia = test system: MOLT-4 leukemia

Row | SMILES | TGI (HCT-116 colon) [µM] | TGI (MCF7 breast) [µM] | TGI (HOP-92 NSCLC) [µM] | TGI (A498 renal) [µM] | TGI (ACHN renal) [µM] | TGI (A549 NSCLC) [µM] | TGI (OVCAR-5 ovarian) [µM] | TGI (SK-OV-3 ovarian) [µM] | TGI (SNB-19 CNS) [µM] | TGI (MOLT-4 leukemia) [µM] | GI50 (HCT-116 colon) [µM] | GI50 (MCF7 breast) [µM] | GI50 (A498 renal) [µM] | GI50 (ACHN renal) [µM] | GI50 (A549 NSCLC) [µM] | GI50 (OVCAR-5 ovarian) [µM] | GI50 (SK-OV-3 ovarian) [µM] | GI50 (SNB-19 CNS) [µM] | GI50 (MOLT-4 leukemia) [µM] | GI50 (HOP-92 NSCLC) [µM]
1 | O=S1(=O)NC2CCC3NS(=O)(=O)NC4CCC(N1)N4S(=O)(=O)N23 (configuration not stated) | > 100 | > 100 | > 100 | > 100 | > 100 | > 100 | > 100 | > 100 | > 100 | – | – | – | – | – | – | – | – | – | – | –
2 | C[C@]12CC[C@H]3[C@@H](CCC4=CC(=O)CC[C@@]43C)[C@@H]1CC[C@@H]2C(=O)COS(=O)(=O)c1ccc(Br)cc1 | 22.7 | 22.5 | 18.3 | 37.2 | 27.6 | 44.6 | 35.2 | 38.1 | 44.6 | – | – | – | – | – | – | – | – | – | – | –
3 | Cc1ccc(NC(=O)CC/C(CC(=O)C(C)(C)C)=N/NC(=O)C[N+](C)(C)C)cc1C | > 100 | – | – | – | > 100 | 59.4 | > 100 | > 100 | > 100 | > 100 | – | – | – | – | – | – | – | – | – | –
4 | COC(=O)NN1C(C)=C(C(=O)OC)C2(C#N)C(C(=O)OC)=C(C)N(NC(=O)OC)C12N (configuration not stated) | > 100 | – | > 100 | > 100 | > 100 | > 100 | > 100 | > 100 | > 100 | > 100 | – | – | – | – | – | – | – | – | – | –
5 | CCOC(=O)c1ccc2c(c1)nc(/C=C/c1ccc(Cl)cc1)n2-c1cc(C(C)(C)C)[nH]n1 | 12.4 | 10.2 | – | 41.7 | 5.75 | 19.7 | > 100 | 14.8 | > 100 | > 100 | 3.42 | 2.71 | 3.03 | 2.03 | 3.64 | 18.5 | 4.28 | 5.93 | 4.74 | –
6 | COC(=O)C[CH2][Ge]([CH3])([CH3])[S]c1ccccc1 | > 100 | – | 92.8 | – | 88.4 | > 100 | > 100 | 67.8 | 81.8 | 33.5 | 33.4 | – | – | 28.6 | 30.6 | 29.5 | 23.5 | 32.2 | 8.31 | 17.7
7 | COC1=C(Br)C(O)C2(C=C1Br)CC(C(=O)NCCCCNC(=O)C1=NOC3(C=C(Br)C(OC)=C(Br)C3O)C1)=NO2 (configuration not stated) | 49.3 | 87.4 | 94.9 | > 100 | 75.1 | > 100 | > 100 | > 100 | > 100 | – | – | – | – | – | – | – | – | – | – | –
8 | CO[C@]12C=C/C(=C(/C(=O)OCc3cccnc3)C(=O)CCCCCCCC[C@@]3(OC)C=C/C(=C(/C(=O)OCc4cccnc4)C(=O)CCCCCCCC1)O3)O2 | 1.22 | 8.89 | 4.83 | 6.57 | > 50 | 9.2 | 15.5 | > 50 | > 50 | – | 0.275 | 0.504 | 2.04 | 1.3 | 1.65 | 1.99 | 2.43 | 3.03 | – | 1.86
9 | C=C1CC[C@@H]2[C@](C)(COC(C)=O)[C@H](OC(C)=O)CC[C@@]2(C)[C@@H]1CC(Nc1ccc(S(=O)(=O)Nc2cc(C)on2)cc1)C1=CCOC1=O (some centres not stated) | 2.39 | – | 8 | 20.3 | 3.48 | 15.4 | 4.05 | 23.1 | 12.2 | 6.39 | 1.12 | – | 7.69 | 1.71 | 4.75 | 2.16 | 11 | 3.12 | 2.12 | 3.07
10 | NC(=O)c1ncn(CCN2CCN(C(=O)NCCCCCCNC(=O)N3CCN(CCn4cnc(C(N)=O)c4N)CC3)CC2)c1N | > 100 | – | > 100 | – | > 100 | > 100 | > 100 | > 100 | > 100 | > 100 | – | – | – | – | – | – | – | – | – | –
11 | COc1ccc2c(c1)[n+]([O-])c(-c1ccc(Br)cc1)c(N)[n+]2[O-] | > 100 | – | > 100 | > 100 | > 100 | > 100 | > 100 | > 100 | > 100 | > 100 | – | – | – | – | – | – | – | – | – | –
12 | COC(=O)C1=Cc2cc(OC)c(OC)cc2[C@H](c2ccc(OC)c(OC)c2)C1C(=O)OC (some centres not stated) | > 100 | – | > 100 | > 100 | > 100 | > 100 | > 100 | > 100 | > 100 | > 100 | – | – | – | – | – | – | – | – | – | –
13 | Cc1cc(=O)n2c3c(c4c(cc13)c(CO)cc(=O)n4C)OC2 | 15.8 | – | 97.1 | 72.5 | 63.5 | > 100 | 72.3 | > 100 | > 100 | – | – | – | – | – | – | – | – | – | – | –
14 | CNc1cc2nc3cc(NC)c(C)cc3cc2cc1C | 1.49 | – | 19.1 | 3.9 | 20.8 | – | 20.2 | 12.8 | 16.6 | > 100 | 0.365 | – | 1.18 | 0.965 | – | 2.75 | 0.695 | 1.48 | 0.514 | 1.76
15 | N.N.O=P([O-])([O-])CN(CCN(CP(=O)([O-])[O-])CP(=O)([O-])[O-])CP(=O)([O-])[O-].[Pt+2] | > 100 | – | > 100 | – | > 100 | > 100 | > 100 | > 100 | > 100 | > 100 | > 100 | – | – | > 100 | > 100 | > 100 | > 100 | > 100 | > 100 | > 100
16 | O=C1C(Nc2ccc(Br)cc2)=C(I)C(=O)c2ncccc21 | 1.08 | – | 1.61 | 8.82 | 1.56 | 8.18 | 5.71 | 11.6 | 5.16 | 3.48 | 0.336 | – | 1.69 | 0.738 | 2.24 | 1.58 | 5.61 | 1.41 | 0.912 | 0.815
